This note sets out measurements from BindingDB's records for doi:10.1016/j.bmcl.2005.07.060 (Universidad De Buenos Aires, 2005).

pIC50: −log10 of the molar value.

Broadly, the pIC50 is the negative decadic logarithm of the IC50, by convention in mol/L. Read a high pIC50 as a small IC50.

This assay addresses farnesyl pyrophosphate synthase (Trypanosoma cruzi). Briefly: Inhibitory concentration against Trypanosoma cruzi farnesyl pyrophosphate synthase (TcFPPS).
Turning to `CCCC(N)(P(=O)(O)O)P(=O)(O)O` [(1-Amino-1-phosphono-butyl)-phosphonic acid], the pIC50 was 4.51.
The result for `CC(N)(P(=O)(O)O)P(=O)(O)O` [(1-Amino-1-phosphono-ethyl)-phosphonic acid] reads 4.18.
For `CCCCCCC(N)(P(=O)(O)O)P(=O)(O)O` [(1-Amino-1-phosphono-heptyl)-phosphonic acid], the pIC50 was 5.45.
With `CCCCCC(N)(P(=O)(O)O)P(=O)(O)O` [(1-Amino-1-phosphono-hexyl)-phosphonic acid], the negative logarithm of the IC50 (pIC50) was 6.42.
In turn, `CCCCC(N)(P(=O)(O)O)P(=O)(O)O` [(1-Amino-1-phosphono-pentyl)-phosphonic acid] showed a negative-log IC50 (pIC50) of 5.41.
The result for `CCC(N)(P(=O)(O)O)P(=O)(O)O` [(1-Amino-1-phosphono-propyl)-phosphonic acid] reads 3.83.
